Assay results taken from patent publication US12606829B2, “Compositions for herpesvirus transcriptional feedback circuit disruption and uses thereof” (priority 2018, dated 2026).
Oligonucleotides are written 5' to 3', each unit as a sugar letter and its base; * is a phosphorothioate linkage, no mark a phosphodiester; rarer units and linkages stand in square brackets, end groups in braces. Plain capitals give the bases only. d = 2'-deoxy (DNA)

Assays:
MCMV = MCMV replication in NIH 3T3 mouse fibroblast cells (TCID50); type: cell-based, murine CMV; details: NIH 3T3, MOI=0.1, 4 days post infection
Protocol: (§1) FIG. 14: C-DOTs can be engineered to interfere with a broad range of species-specific herpesviruses including drug-resistant strains. (a) Sequence homology for the crs of human CMV, rhesus CMV (RhCMV), and murine CMV (MCMV). Sequence homology and divergence are represented. […] NIH 3T3 mouse fibroblast cells were nucleofected with either 28 bp C-DOT^MCMY, or C-DOT^Scram, or mock nucleofected 24 hours prior to MCMV infection at MOI=0.1. 4 days post infection, virus titers were assayed by TCID50. […] (Upper) Fluorescent micrographs, 4-day post nucleofection, of Telo-RF cells nucleofected with either a 28 bp C-DOT^RhCMV, or a C-DOT^Scram, or mock nucleofected and then infected with RhCMV (RhCMV 68.1 GFP) at MOI=0.1. (Lower) Virus titers assayed by TCID-50 at 4 days post infection. […] MRC-5 cells were nucleofected with C-DOT^C or C-DOT^Scram then infected 24-hour later with either the parent CMV AD169 (control) or GCV^R or FOS^R strains (CMV GDGrK17, CMV GDGrP53, CMV 759rD100-1, CMV PFArD100). Virus titers were assayed by TCID-50 at 4 days post infection.

HSV-1 (17syn+ IE175-YFP) = experiment: Single-round viral titering of HSV-1 in ARPE-19 cells (TCID50); type: cell-based
From the text: (§2) FIG. 7: Feedback circuit disruption interferes with viral replication even at high MOI and limits the evolution of resistance. (a) Flow cytometry of ARPE-19 cells nucleofected with the 28 bp dsDNA that titrates IE86 (C-DOT^C) or scrambled dsDNA sequence (C-DOT^Scram) and infected with a clinically derived CMV (TB40E) encoding an IE86-YFP (MOI=0.1) then analyzed at 2 days post infection (dpi). (b) Flow cytometry of ARPE-19 cells nucleofected with a 29 bp DNA to titrate IE175 (C-DOT^H) or scrambled dsDNA sequence (C-DOT^Scram) and infected with HSV-1 (17syn+strain) encoding an IE175-YFP (MOI=0.1) then analyzed at 2 dpi. (c) Single-round viral titering of CMV in the presence of 100 μM GCV, PBS, or 25 μM C-DOT^C (or C-DOT^Scram) at 4-days post infection under different initial MOIs. (d) Single-round viral titering of HSV-1 in presence of 100 μM ACV or 25 μM C-DOT^H (or C-DOT^Scram) at 4-days post infection under different HSV-1 MOIS. (e) Schematic of the continuous-culture experiment; ARPE-19 cells (+/−C-DOT) were infected with CMV or HSV-1 (0.1 MOI) and at 4-day post infection, supernatant was collected and was used to infect naïve ARPE-19 cells +/−C-DOT until day 60. (f) Continuous culture titers for CMV (TB40E-IE86-YFP) in the presence of C-DOT^C (red) or mock treatment (black). […]

RhCMV 68.1 GFP = experiment: RhCMV replication in Telo-RF cells (TCID-50); type: cell-based, rhesus CMV; details: MOI=0.1, 4 days post infection
Protocol: as §1

CMV (TB40E-IE86-YFP) = experiment: Single-round viral titering of CMV in ARPE-19 cells (TCID50); type: cell-based
From the text: as §2

[1] = test system: CMV (TB40E-IE86-YFP or AD169); experiment: C-DOT antiviral effect under high and low cGAS-STING expression (MRC-5, ARPE-19); type: cell-based; details: MRC-5 (high) and ARPE-19 (low cGAS-STING activity), 4 days post infection
Protocol: However, to verify that C-DOT activity is independent of cGAS-STING, C-DOTs were tested under conditions of high and low cGAS-STING expression and observed little difference in C-DOT antiviral effects and no effects for C-DOT^Scram in either setting (FIG. 15b).
Total RNA was extracted from cells and corresponding cDNA was quantified by qPCR using sequence specific primers for TLR9 (see Extended Data Table 1 for sequences). […] ARPE-19 (low cGAS-STING activity) and MRC-5 cells (high cGAS-STING activity) were nucleofected with C-DOTE or mock and infected with TB40E-IE86-YFP or AD169, respectively. Virus titers were assayed by TCID-50 at 4 days post infection. (c)C-DOT^C decreases CMV titers below detection by day 60 in the continuous culture setting. CMV titers from the continuous culture experiment followed out to day 60. ARPE-19 cells (+/−25 μM C-DOT) were infected with CMV (TB40E-IE86-YFP; MOI=0.1). (d) CMV and HSV-1 rapidly acquire resistance to approved antivirals (fomivirsen and acyclovir). Viral titers from the continuous culture experiment in the presence or absence of fomivirsen. Mock- or fomivirsen-nucleofected ARPE-19 cells were infected with CMV (TB40E-IE86-YFP; MOI=0.1); at 4 days post infection, supernatants were transferred to infect new naïve ARPE-19 cells (+/−fomivirsen) and transfers repeated every 4 days until day 44. […]

CMV = experiment: Cell-death pathway analysis in the context of CMV infection; type: cell-based
From the text: (§3) FIG. 10 provides a cell-death pathway analysis (pharmacological inhibitors). The mechanism of C-DOT-induced cell death (in the context of the virus infection) was identified using three separate approaches: (i) RNAseq: to identify misregulated expression patterns and the cell-death pathways these group into (ii) Antibody staining: for specific cell-death pathway markers (iii) Pharmacological inhibitors: of cell-death pathways to test which mitigate C-DOT-induced death. […] C-DOT alone caused cell death in CMV and HSV-1.

HSV-1 = experiment: Cell-death pathway analysis in the context of HSV-1 infection; type: cell-based
From the text: as §3

C-DOT^MCMV: 28 bp dsDNA with murine CMV crs; Fw G*ACAGACCA*GCGTCGG*TACCGTACACG*A (SEQ ID NO: 9) (sense dG*dAdCdAdGdAdCdCdA*dGdCdGdTdCdGdG*dTdAdCdCdGdTdAdCdAdCdG*dA; antisense TCGTGTACGGTACCGACGCTGGTCTGTC; antisense: DNA, backbone not given here)
effect on MCMV replication (MCMV): interferes with MCMV replication

Nc1nc2c(ncn2COCCO)c(=O)[nH]1 [ACV, acyclovir]
reduction in viral replication (HSV-1 (17syn+ IE175-YFP); HSV-1, MOI=2, 100 μM ACV or 25 μM C-DOT^H, 4 days post infection): 35-70 ×

C-DOT^RhCMV: 28 bp dsDNA with rhesus CMV crs; Fw G*ACAGATCGT*TTAGGGAAC*CGTACACG*A (SEQ ID NO: 8) (sense dG*dAdCdAdGdAdTdCdGdT*dTdTdAdGdGdGdAdAdC*dCdGdTdAdCdAdCdG*dA; antisense TCGTGTACGGTTCCCTAAACGATCTGTC; antisense: DNA, backbone not given here)
effect on RhCMV replication (RhCMV 68.1 GFP): downregulates RhCMV replication

Nc1nc(O)c2ncn(COC(CO)CO)c2n1 [GCV, ganciclovir]
reduction in viral replication (CMV (TB40E-IE86-YFP); MOI=2, 100 μM GCV or 25 μM C-DOT^C, 4 days post infection): 35-70 ×

C-DOT^Scram: scrambled dsDNA sequence, phosphorothioated, negative control; Fw A*TACCGCGTAA*CCAGAGGT*ATATAGGT*C (SEQ ID NO: 40) (sense ATACCGCGTAACCAGAGGTATATAGGTC; antisense GACCTATATACCTCTGGTTACGCGGTAT; phosphorothioate; (1)..(2) A Phosphorothioate bond is present between the nucleotides at positions 1 and 2; (11)..(12) A Phosphorothioate bond is present between the nucleotides at positions 11 and 12; (19)..(20) A Phosphorothioate bond is present between the nucleotides at positions 19 and 20; (27)..(28) A Phosphorothioate bond is present between the nucleotides at positions 27 and 28; (1)..(2) A Phosphorothioate bond is present between the nucleotides at positions 1 and 2.; (9)..(10) A Phosphorothioate bond is present between the nucleotides at positions 9 and 10.; (17)..(18) A …)
antiviral effects (CMV (TB40E-IE86-YFP)): did not exhibit antiviral effects
antiviral effects (HSV-1 (17syn+ IE175-YFP); HSV-1): did not exhibit antiviral effects
antiviral effects under high and low cGAS-STING expression [1]: no effects
cell death (CMV): minimal cell death
cell death (HSV-1): minimal cell death
